{"source": "ChEMBL document CHEMBL3045528", "about": "“Development of a Novel Fungicide, Cyazofamid” (J Pestic Sci, 2004)", "key": {"[1]": {"test_system": "Pseudoperonospora cubensis", "experiment": "Antimicrobial activity against Pseudoperonospora cubensis infested in cucumber plant", "type": "functional"}, "Plasmopara viticola": {"test_system": "Plasmopara viticola", "experiment": "Antimicrobial activity against Plasmopara viticola infested in grapevines", "type": "functional"}, "[2]": {"test_system": "Pseudoperonospora cubensis", "experiment": "Antimicrobial activity against Pseudoperonospora cubensis infested in melons", "type": "functional"}, "Phytophthora infestans [3]": {"test_system": "Phytophthora infestans", "experiment": "Antimicrobial activity against Phytophthora infestans infested in potato plant", "type": "functional"}, "[4]": {"experiment": "Solubility of the compound in water at pH 5 at 20 degC", "type": "physicochemical"}, "Apis mellifera [5]": {"test_system": "Apis mellifera", "experiment": "Acute toxicity in Apis mellifera (honey bee) compound administered topically", "type": "organism-based", "details": "in vivo, topical_or_ocular"}, "[6]": {"experiment": "Acute toxicity in Pheretima sieboldi", "type": "organism-based", "details": "metaphire sieboldi, in vivo"}, "Apis mellifera [7]": {"test_system": "Apis mellifera", "experiment": "Acute toxicity in po dosed Apis mellifera (honey bee)", "type": "organism-based", "details": "in vivo"}, "[8]": {"test_system": "Selenastrum capricornutum", "experiment": "Toxicity in Selenastrum capricornutum", "type": "organism-based"}, "Daphnia magna": {"test_system": "Daphnia magna", "experiment": "Toxicity in Daphnia magna", "type": "organism-based"}, "[9]": {"experiment": "Toxicity in Oncorhynchus mykiss (rainbow trout)", "type": "organism-based", "details": "in vivo"}, "[10]": {"experiment": "Toxicity in Cyprinidae (carp fish)", "type": "ADME, organism-based", "details": "in vivo"}, "[11]": {"experiment": "Acute toxicity in Rattus norvegicus (rat) administered through inhalation", "type": "organism-based", "details": "in vivo, inhaled or intranasal"}, "[12]": {"experiment": "Acute toxicity in […] dosed Rattus norvegicus (rat)", "type": "organism-based", "details": "in vivo"}, "[13]": {"experiment": "Acute toxicity in po dosed Mus musculus (mouse)", "type": "organism-based", "details": "in vivo"}, "[14]": {"experiment": "Acute toxicity in po dosed Rattus norvegicus (rat)", "type": "organism-based", "details": "in vivo"}, "Phytophthora infestans [15]": {"test_system": "Phytophthora infestans", "experiment": "Antimicrobial activity against Phytophthora infestans infested in tomato plant", "type": "functional"}}}
{"molecule": "Cc1ccc(-c2c(Cl)nc(C#N)n2S(=O)(=O)N(C)C)cc1", "note": "[Cyazofamid]", "values": [{"measurement": "Activity", "setting": "[1]", "result": 50, "unit": "µg/mL"}, {"measurement": "Activity", "setting": "Plasmopara viticola", "result": 50, "unit": "µg/mL"}, {"measurement": "Activity", "setting": "[2]", "result": 50, "unit": "µg/mL"}, {"measurement": "Activity", "setting": "Phytophthora infestans [3]", "result": 50, "unit": "µg/mL"}, {"measurement": "solubility", "setting": "[4]", "result": 0.121, "unit": "µg/mL"}, {"measurement": "LD50", "setting": "Apis mellifera [5]", "result": "> 100", "unit": "µg"}, {"measurement": "NOAEL", "setting": "[6]", "result": "> 1000", "unit": "mg/kg"}, {"measurement": "LD50", "setting": "Apis mellifera [7]", "result": "> 151.7", "unit": "µg"}, {"measurement": "EC50", "setting": "[8]", "result": 0.858, "unit": "µg/mL"}, {"measurement": "EC50", "setting": "Daphnia magna", "result": "> 0.198", "unit": "µg/mL"}, {"measurement": "LC50", "setting": "[9]", "result": "> 100", "unit": "µg/mL"}, {"measurement": "LC50", "setting": "[10]", "result": "> 69.6", "unit": "µg/mL"}, {"measurement": "LC50", "setting": "[11]", "result": "> 5.5", "unit": "µg/mL"}, {"measurement": "LD50", "setting": "[12]", "result": "> 2000", "unit": "mg/kg"}, {"measurement": "LD50", "setting": "[13]", "result": "> 5000", "unit": "mg/kg"}, {"measurement": "LD50", "setting": "[14]", "result": "> 5000", "unit": "mg/kg"}, {"measurement": "Activity", "setting": "Phytophthora infestans [15]", "result": 50, "unit": "µg/mL"}]}
